# According to US12678440B2, “Compositions and methods for treating misfolded protein ocular disorders” (CASE WESTERN RESERVE UNIVERSITY, priority 2020, dated 2026):
# System: Rho^P23H/+ mice
# Experiment: Retinal immunohistochemistry (IHC) after intravitreal injection
# Assay type: in vivo, mouse
# Description: The C57BL/6J (Rho^+/+) mice and Rho^P23H/P23H mice were purchased from Jackson Laboratory (Stock No 017628) generated by Dr. Krzysztof Palczewski's lab. The Rho^P23H/P23H mice were crossed with wild-type C57BL/6J mice to produce P23H heterozygotes mice. Genotyping for all strains was conducted as guided using forward and reverse primers: 1) GGTAGCACTGTTGGGCATCT (SEQ ID NO: 5); and 2) GACCCCACAGAGACAAGCTC (SEQ ID NO: 6), respectively. The PCR products at 573 and 399 bp indicated the P23H knock-in mutant and WT allele of the RHO gene, respectively. Mice were bred and housed under standard 12-h light/12-h dark conditions in the University of Pittsburgh animal facility. All animal experiments were approved by the University of Pittsburgh Institutional Animal Care and Use Committee (IACUC) following the guide for the Animal Welfare Act and Regulations.
# To determine the effect of compounds on retina in vivo, we administered compounds directly into the vitreous space. Briefly, mice were treated with 1% tropicamide eye drops (Akorn, Lake Forest, IL USA) to dilate the pupils and then they were anesthetized with an intraperitoneal injection of ketamine (Henry Schein, Dublin, OH USA) at 80 mg/kg body weight (bw) and xylazine (Bimeda, Le Sueur, MN USA) at 7 mg/kg bw. One drop of 0.5% tetracaine hydrochloride (TCI, Tokyo, Japan) was applied to mouse eyes as topical anesthetics before injection. Eyes were kept lubricated during the injections by a 0.3% hypromellose eye gel (Alcon, Fort Worth, TX USA). A heating pad was used for maintaining body temperature. Mice were positioned to expose the sclera of the eyes. A 30-gauge needle (Medline, Northfield, IL USA) was used to puncture a hole through sclera behind limbus at a 45° angle. A 33-gauge blunt-end needle (Hamilton, Reno, NV USA) was used to be inserted into the hole and a total of 0.5 μL of sterile PBS or MTX in PBS was slowly injected into the posterior chamber and the needle was kept in place for about 30 seconds before a slow removal of the needle. A small amount of Triantibiotic ointment (Medline, Northfield, IL USA) was applied on the injection site to prevent infection. A single IVI with 25 or 100 pmol of MTX was administered to one eye of each Rho^P23H/+ mice at postnatal day (PND) 15, and PBS was injected to the other eye as vehicle control. We also performed four weekly IVIs of MTX or PBS to the second group of Rho^P23H/+ mouse eyes at PND 15, 22, 29 and 36.
# Eyes were enucleated by a pair of curved-tip forceps and fixed in the freshly prepared 4% paraformaldehyde for 2 h. Fixed eyes were dehydrated sequentially in 5, 10, 20 and 40% sucrose solutions in PBS each for 30 min at room temperature. Finally, eyes were incubated in a mixture of 40% sucrose in PBS and O.C.T. compound (FisherScientific, Houston, TX USA) at 1:1 volume ratio for overnight at 4° C. before they are embedded in the same mixed solution in an orientation-specific manner and frozen in liquid nitrogen-bathed isobutene. Twelve-micron retinal cross-sections were made by a microtome at −16° C. and those containing the optic nerve head were applied onto a SuperFrost glass slide (FisherScientific, Houston, TX USA). These slides were then used for IHC. After rehydration and permeabilization in PBST for 15 min, retinal sections were incubated in 5% goat serum for 30 min, and then they were incubated with PBS containing the mouse 1D4 anti-rhodopsin antibody (20 μg/mL) for 2 hours at room temperature in a humidified chamber. The retinal sections were washed with PBST for four times and incubated with Cy3 conjugated goat anti-mouse antibody (5 μg/mL) for 1 hour at room temperature. Hoechst 33342 (1:10000 dilution) was applied for 5 min to stain the nuclei. Sections were mounted with the ProlongGold mounting solution (ThermoFisher, Waltham, MA USA). Immunofluorescence images were then taken by a fluorescence microscope for low-magnification images and a confocal microscope for high-magnification images. […]
# [1] = four IVIs of 25 pmol, PND 46, vs PBS, superior side, not inferior side
# [2] = single IVI 25 pmol, PND 33, vs PBS, superior side, not inferior side
smiles,measurement,setting,value
"CN(Cc1cnc2nc(N)nc(N)c2n1)c1ccc(C(=O)N[C@@H](CCC(=O)O)C(=O)O)cc1 [CL-009, N-[4-[[(2,4-diamino-6-pteridinyl)methyl]methylamino]benzoyl]-L-glutamic acid]",retinal degeneration caused by MTX,"100 pmol IVI, Rho^P23H/+ mice",did not see obvious retinal degeneration
same,level of rhodopsin in the ONL (IHC),[1],lower
same,levels of rhodopsin in the OS (IHC),[1],significantly higher
same,nucleus number in the ONL,[1],higher
same,rhodopsin in the OS (IHC),[2],significant increase
same,total rhodopsin level in retinae (IHC),[2],significant increase
same,ONL nucleus number,"single IVI, PND 33, either side of the retina",No change
